melting point: 166 to 167 °C
Compound: CCCC1c2nc[nH]c2CCN1C(=O)OCc1ccccc1.O=C(O)C(F)(F)F (stereo not shown)

From US20020198189A1, “New use” (priority 2000, published 2002)
